From PMC10672332, “Lecanicilliums A–F, Thiodiketopiperazine-Class Alkaloids from a Mangrove Sediment-Derived Fungus Lecanicillium kalimantanense” (Marine Drugs, 2023)
≈ marks a conversion by molar mass, not a printed value. Where two headings read alike, the source gives them in different places.

Legend:
Bacillus subtilis BS01 = test: Antibacterial assay, micro broth dilution; format: cell-based; settings: BS01, micro broth dilution, LB medium, 24 hours at 37 °C, read-out: Antibacterial Activity (MIC) B. subtilis
Experimental: (§1) The micro broth dilution method was used to evaluate the antibacterial activities of compounds 1–19 against the growth of eight common pathogens: Bacillus subtilis BS01, Micrococcus luteus, Escherichia coli ATCC 25922, Staphylococcus aureus ATCC 6538, S. aureus MRSA, Streptococcus agalactiae ATCC 13813, S. iniae, and Pseudomonas aeruginosa ATCC 9027 in 96-well polystyrene plates. Vancomycin and ciprofloxacin were used as positive controls. Briefly, wells containing 100 μL bacteria dilutions (OD600 = 0.01) in Luria–Bertani (LB) medium were supplemented with different concentrations of 1–19 (80, 40, 20, 10, 5, 2.5, 1.25, and 0.625 μg/mL), vancomycin, and ciprofloxacin (40, 20, 10, 5, 2.5, 1.25, 0.625, and 0.3125 μg/mL), respectively. The MICs were determined after 24 hours’ incubation at 37 °C with the tested compounds.

[1] = system: Escherichia coli ATCC 25922; test: Antibacterial assay, micro broth dilution; format: cell-based; settings: ATCC25922, micro broth dilution, LB medium, 24 hours at 37 °C, read-out: Antibacterial Activity (MIC) E. coli
Experimental: as §1

[2] = system: Pseudomonas aeruginosa ATCC 9027; test: Antibacterial assay, micro broth dilution; format: cell-based; settings: ATCC9027, micro broth dilution, LB medium, 24 hours at 37 °C, read-out: Antibacterial Activity (MIC) P. aeruginosa
Experimental: as §1

S. iniae = test: Antibacterial assay, micro broth dilution; format: cell-based; settings: Streptococcus iniae; micro broth dilution, LB medium, 24 hours at 37 °C; read-out: Antibacterial Activity (MIC) S. iniae
Experimental: as §1

[3] = system: Staphylococcus aureus ATCC 6538; test: Antibacterial assay, micro broth dilution; format: cell-based; settings: ATCC6538, micro broth dilution, LB medium, 24 hours at 37 °C, read-out: Antibacterial Activity (MIC) S. aureus
Experimental: as §1

[4] = system: Streptococcus agalactiae ATCC 13813; test: Antibacterial assay, micro broth dilution; format: cell-based; settings: ATCC13813, micro broth dilution, LB medium, 24 hours at 37 °C, read-out: Antibacterial Activity (MIC) S. agalactiae
Experimental: as §1

Micrococcus luteus = test: Antibacterial assay, micro broth dilution; format: cell-based; settings: read-out: Antibacterial Activity (MIC) M. luteus
Experimental: as §1

S. aureus MRSA = test: Antibacterial assay, micro broth dilution; format: cell-based; settings: Staphylococcus aureus, read-out: Antibacterial Activity (MIC) MRSA
Experimental: as §1

brine shrimps = test: Brine shrimp lethality bioassay; format: in vivo; settings: Table 3
From the text: The methods were the same as those used in our previous studies.

[5] = Cytotoxicity, CCK-8 method; format: cell-based; settings: human
Experimental: (§2) Cytotoxic activity was evaluated using the human lung adenocarcinoma cell line H1975 and human hepatocellular carcinoma cell line HepG-2, using the CCK-8 method as described in our previous study. Briefly, each of the test compounds was dissolved in DMSO and further diluted to give final concentrations of 80, 40, 20, 10, 5, 2.5, and 1.25 μM, respectively. H1975 cells or HepG-2 cells (5 × 10^3 […]) were seeded in 96-well plates and treated with compounds at the indicated concentration for 24 hours and then 10 μL CCK-8 reagent was added to each well. The plates were incubated at 37 °C for another 4 hours. Finally, the optical density was measured at a wavelength of 450 nm with a Bio-Rad microplate reader. Dose–response curves were generated, and the IC50 values were calculated from the linear portion of log dose–response curves.

[6] = Cytotoxicity, CCK-8 method; format: cell-based; settings: human; remark: listed apart in the source
Experimental: as §2

[7] = micro broth dilution, LB medium, 24 hours at 37 °C
[8] = H1975 cells (lung adenocarcinoma cell line), H1975 cells, CCK-8, 24 hours treatment, read-out: Cytotoxicity (IC50) against H1975
[9] = HepG-2 cells (hepatocellular carcinoma cell line), HepG-2 cells, CCK-8, 24 hours treatment, read-out: Cytotoxicity (IC50) against HepG-2

Compound	MIC (Bacillus subtilis BS01)	MIC [1]	MIC [2]	MIC (S. iniae)	MIC [3]	MIC [4]	MIC (Micrococcus luteus; [7])	MIC (S. aureus MRSA; [7])	Toxicity (TC50) Brine Shrimp (brine shrimps)	IC50 at 24 h [5]	IC50 at 24 h [6]	IC50 at 24 h [5, 8]	IC50 at 24 h [6, 9]	MIC (Micrococcus luteus; 24 h)	MIC (S. aureus MRSA; 24 h)
O=C(O)c1cn(C2CC2)c2cc(N3CCNCC3)c(F)cc2c1=O [CFN, Ciprofloxacin, reference compound]	0.6 µg/mL (≈ 1.81 µM)	0.6 µg/mL (≈ 1.81 µM)	0.6 µg/mL (≈ 1.81 µM)	2.5 µg/mL (≈ 7.54 µM)	0.6 µg/mL (≈ 1.81 µM)	5 µg/mL (≈ 15.1 µM)	–	–	–	–	–	–	–	–	–
O=C1N2C3OC=CC4SC2(CC3C4O)C(=O)NC12Cc1ccccc1O2 (centres unmarked) [Compound 1, Lecanicillium A]	60 µg/mL (≈ 161 µM)	> 80 µg/mL	> 80 µg/mL	> 80 µg/mL	> 80 µg/mL	> 80 µg/mL	> 80 µg/mL	> 80 µg/mL	>80 µg/mL	–	–	–	–	–	–
CSC12CC3=COC=CC(O)C3N1C(=O)C1(Cc3ccccc3O1)NC2=O (centres unmarked) [Compound 2, Lecanicillium B]	80 µg/mL (≈ 207 µM)	> 80 µg/mL	> 80 µg/mL	70 µg/mL (≈ 181 µM)	> 80 µg/mL	> 80 µg/mL	60 µg/mL (≈ 155 µM)	> 80 µg/mL	>80 µg/mL	> 80 µM	> 80 µM	–	–	–	–
CSC12CC3=COC=CC(OC(C)=O)C3N1C(=O)C1(SC)CC34OC3C3OC3C(OC(C)=O)C4N1C2=O (centres unmarked) [Compound 3, Lecanicillium C]	> 80 µg/mL	> 80 µg/mL	> 80 µg/mL	> 80 µg/mL	> 80 µg/mL	> 80 µg/mL	> 80 µg/mL	> 80 µg/mL	>80 µg/mL	> 80 µM	> 80 µM	–	–	–	–
CSC12CC3=COC=CC(OC(C)=O)C3N1C(=O)C1(SC)CC3(O)C=CC(=O)C(OC(C)=O)C3N1C2=O (centres unmarked) [Compound 4, Lecanicillium D]	50 µg/mL (≈ 90.8 µM)	> 80 µg/mL	> 80 µg/mL	40 µg/mL (≈ 72.6 µM)	> 80 µg/mL	> 80 µg/mL	> 80 µg/mL	> 80 µg/mL	80 µg/mL	71.5 µM	> 80 µM	–	–	–	–
CS[C@@]1(Cc2ccccc2)NC(=O)[C@H](Cc2ccccc2)NC1=O [Compound 6, Lecanicillium F]	> 80 µg/mL	> 80 µg/mL	> 80 µg/mL	> 80 µg/mL	> 80 µg/mL	> 80 µg/mL	> 80 µg/mL	> 80 µg/mL	–	–	–	> 80 µM	> 80 µM	–	–
CS[C@@]1(Cc2ccccc2)NC(=O)[C@@](Cc2ccccc2)(SC)NC1=O [Compound 7, emethacin B]	> 80 µg/mL	> 80 µg/mL	> 80 µg/mL	> 80 µg/mL	> 80 µg/mL	> 80 µg/mL	> 80 µg/mL	> 80 µg/mL	–	–	–	16.9 µM	> 80 µM	–	–
CS[C@@]12CC3=COC=C[C@H](OC(C)=O)[C@H]3N1C(=O)[C@]1(SC)CC3=COC=C[C@H](OC(C)=O)[C@H]3N1C2=O [Compound 8, bisdethiobis(methylsulfanyl)acetylaranotin]	> 80 µg/mL	> 80 µg/mL	> 80 µg/mL	> 80 µg/mL	> 80 µg/mL	> 80 µg/mL	> 80 µg/mL	> 80 µg/mL	–	> 80 µM	> 80 µM	–	–	–	–
CS[C@@]12CC3=COC=C[C@H](O)[C@H]3N1C(=O)[C@]1(SC)CC3=COC=C[C@H](O)[C@H]3N1C2=O [Compound 9, bisdethiobis(methylsulfanyl)deacetylaranotin]	> 80 µg/mL	> 80 µg/mL	> 80 µg/mL	> 80 µg/mL	> 80 µg/mL	> 80 µg/mL	> 80 µg/mL	> 80 µg/mL	>80 µg/mL	> 80 µM	> 80 µM	–	–	–	–
CS[C@@]12CC3=COC=C[C@H](OC(C)=O)[C@H]3N1C(=O)[C@]1(SC)CC3=COC=C[C@H](O)[C@H]3N1C2=O [Compound 10, bisdethiobis(methylsulfanyl)-aranotin]	> 80 µg/mL	> 80 µg/mL	> 80 µg/mL	> 80 µg/mL	> 80 µg/mL	> 80 µg/mL	> 80 µg/mL	> 80 µg/mL	>80 µg/mL	> 80 µM	> 80 µM	–	–	–	–
CS[C@@]12CC3=CC=C[C@H](OC(C)=O)[C@H]3N1C(=O)[C@]1(SC)CC3=COC=C[C@H](O)[C@H]3N1C2=O [Compound 11, 8-acetyl-bisdethiobis(methylsulfanyl)apoaranotin]	60 µg/mL (≈ 126 µM)	> 80 µg/mL	> 80 µg/mL	50 µg/mL (≈ 105 µM)	> 80 µg/mL	> 80 µg/mL	> 80 µg/mL	> 80 µg/mL	>80 µg/mL	69.3 µM	> 80 µM	–	–	–	–
CS[C@@]12CC3=CC=C[C@H](OC(C)=O)[C@H]3N1C(=O)[C@]1(SC)CC3=COC=C[C@H](OC(C)=O)[C@H]3N1C2=O [Compound 12, bisdethiobis(methylsulfanyl)acetylapoaranotin]	> 80 µg/mL	> 80 µg/mL	> 80 µg/mL	> 80 µg/mL	> 80 µg/mL	50 µg/mL (≈ 96.4 µM)	50 µg/mL (≈ 96.4 µM)	> 80 µg/mL	50 µg/mL	> 80 µM	> 80 µM	–	–	–	–
CS[C@@]12CC3=COC=C[C@H](OC(C)=O)[C@H]3N1C(=O)[C@]1(SC)CC3=CC=C[C@H](O)[C@H]3N1C2=O [Compound 13, bisdethiobis(methylsulfanyl)apoaranotin]	> 80 µg/mL	> 80 µg/mL	> 80 µg/mL	> 80 µg/mL	> 80 µg/mL	> 80 µg/mL	> 80 µg/mL	> 80 µg/mL	–	> 80 µM	> 80 µM	–	–	–	–
CS[C@@]12Cc3ccccc3N1C(=O)[C@]1(SC)CC3=COC=C[C@H](OC(C)=O)C3N1C2=O (some centres unmarked) [Compound 16, versicolor A]	70 µg/mL (≈ 153 µM)	> 80 µg/mL	> 80 µg/mL	> 80 µg/mL	> 80 µg/mL	70 µg/mL (≈ 153 µM)	> 80 µg/mL	> 80 µg/mL	–	7.2 µM	> 80 µM	–	–	–	–
CS[C@@]12Cc3ccccc3N1C(=O)[C@]1(SC)CC3=COC=C[C@H](O)C3N1C2=O (some centres unmarked) [Compound 17, 12,12a-anhydro-desacetyl-bis-dethio-7a, 14a-di-(methylmercapto)-apoaranotin]	80 µg/mL (≈ 192 µM)	> 80 µg/mL	> 80 µg/mL	30 µg/mL (≈ 72 µM)	> 80 µg/mL	70 µg/mL (≈ 168 µM)	> 80 µg/mL	> 80 µg/mL	–	35.2 µM	> 80 µM	–	–	–	–
CS[C@@H]1NC(=O)[C@@](Cc2ccccc2)(SC)NC1=O [Compound 19, citriperazine B]	80 µg/mL (≈ 270 µM)	> 80 µg/mL	> 80 µg/mL	> 80 µg/mL	> 80 µg/mL	> 80 µg/mL	70 µg/mL (≈ 236 µM)	> 80 µg/mL	–	–	–	> 80 µM	> 80 µM	–	–
CN[C@H](CC(C)C)C(=O)N[C@H]1C(=O)N[C@@H](CC(N)=O)C(=O)N[C@H]2C(=O)N[C@H]3C(=O)N[C@H](C(=O)N[C@H](C(=O)O)c4cc(O)cc(O)c4-c4cc3ccc4O)[C@H](O)c3ccc(c(Cl)c3)Oc3cc2cc(c3O[C@@H]2O[C@H](CO)[C@@H](O)[C@H](O)[C@H]2O[C@H]2C[C@](C)(N)[C@H](O)[C@H](C)O2)Oc2ccc(cc2Cl)[C@H]1O [VMN, Vancomycin, reference compound]	–	–	–	–	–	–	–	–	–	–	–	–	–	0.6 µg/mL (≈ 0.414 µM)	2.5 µg/mL (≈ 1.73 µM)
